Reference: patent EP0500785B1, “A HUMAN T CELL REACTIVE FELINE PROTEIN (TRFP) ISOLATED FROM HOUSE DUST AND USES THEREFOR” (IMMULOGIC PHARMACEUTICAL CORPORATION, priority 1989, dated 2002)

Columns and labels:
Assay type in all cases: cell-based, human
[1] = system: Patient 155 TRFP secondary primed T cells; assay: Induction of T cell anergy/tolerance in vitro, followed by proliferation assay on antigenic challenge
Method: The T cell cultures were exposed to 5µg/ml TRFP on day 0 and 5µg/ml, 10µg/ml, 10µg/ml and 20µg/ml thereafter. The peptide treated cultures were exposed to 1µg/ml peptide on day 0 and 1µg/ml, 1µg/ml, 2µg/ml and 5µg/ml thereafter. In addition, 0.5ml of fresh media was replaced on day 2. The cells were then washed and set up for a proliferation assay with 2x10^4 T cells and 2x10^4 irradiated (2500 Rad) autologous EBV and various doses of antigen. T cell proliferation was measured as incorporation of tritiated thymidine at day 9. […]

[2] = system: TRFP primed T cell cultures; assay: T cell proliferation assay (tritiated thymidine incorporation) of TRFP-primed T cells restimulated with allergens or peptides; settings: for T cell stimulatory activity: summarising Tables 2 and 3
Method: Peripheral blood mononuclear cells (PBMC) were purified from 60 ml of heparinized blood from cat allergic patients. PBMC were subsequently treated as described below, although in individual cases, the length of time of cultivation with IL-2 and/or IL-4 and the specific peptides used for stimulation varied.
10 ml of PBMC from patient 131 at 10^6/ml were cultured at 37°C for 7 days in the presence of 5 micrograms purified TRFP/ml RPMI-1640 supplemented with 5% pooled human AB serum. Viable cells were purified by Ficoll-Hypaque centrifugation and cultured for three weeks at 5 units recombinant human IL-2/ml and 5 units recombinant human IL-4/ml. The resting T cells were then restimulated (secondary) with 5 micrograms TRFP at 2 x 10^5/ml in the presence of irradiated (3500 Rads) autologous PBMC at a concentration of 5 x 10^5/ml for three days, purified by Ficoll-Hypaque centrifugation and grown in 5 units IL-2 and 5 units IL-4/ml for two weeks. For assay, 2 x 10^4 resting secondary T cells were restimulated (tertiary) in the presence of 5 x 10^4 irradiated (3500 Rads) autologous PBMC or 2 x 10^4 transformed B cells (20,000 Rads) with various concentrations of allergens or their fragments in a volume of 200 microliters in a 96-well round bottom assay plates for 3 days. Each well then received 1 microCurie tritiated (methyl) thymidine for 16 hours. The counts incorporated were collected onto glass fiber filters and processed for liquid scintillation counting.
Antigens used: T cell reactive feline protein (TRFP), Hollister-Stier cat epithelium skin test reagent (CST), IPC ragweed pollen extract (pollen), and synthetic peptides derived from the TRFP protein sequence (See Figures 6 and 7). Significant T cell proliferation is generally regarded as greater than 2.5 times the media control (T cells and antigen presenting cells alone).
Alternatively, PBMC were treated as follows: the primary stimulated cells were cultured in IL-2/IL-4 for two weeks. The resting T cells derived from this culture were tested in a secondary assay with some, but not all, of the above allergens. […] This type of epitope analysis has allowed the definition of T cell epitopes present in TRFP.

[3] = system: Peripheral blood mononuclear cells (PBMC); assay: Cytokine profiles (IL-2, IFN-γ, IL-4 cDNA) by PCR in a primary 36 hour PBMC culture; design: key to STIMULATION INDEX IL-2 / STIMULATION INDEX IFN-γ / STIMULATION INDEX IL-4: fold over medium control; undetectable control set to 1.00; settings: Patient 409 primary 36 hour culture; for STIMULATION INDEX IFN-γ / STIMULATION INDEX IL-4 / STIMULATION INDEX IL-2: 20 micrograms TRFP/ml or 50 micrograms peptide/ml; for STIMULATION INDEX IFN-γ / STIMULATION INDEX IL-4: relative to medium control; for RATIO IFN/IL-4 / RATIO IL-2/IL-4: ratio of stimulation indices; for STIMULATION INDEX IL-2: medium not detectable, lowest measurable response set at 1.00
Method: Peripheral blood mononuclear cells (PBMC) were purified from cat-allergic patients as described in Example 5. Five x 10^6 PBMC were cultured at 2 x 10^6/ml for 36 hours in the presence of medium only, 20 micrograms purified TRFP/ml or 50 micrograms peptide/ml. The cells were then washed two times with phosphate buffered saline (PBS, pH 7.2) and lysed with 2 ml […] guanidinium isothiocyanate, 0.5% Sarkosyl, 5 mM sodium citrate, 0.1 M 2-mercaptoethanol, pH 7.0. The lysate was then forced through a 26 gauge needle to shear genomic DNA, and was layered onto a 2 ml cushion of 5.7 M CsCl, 0.01 M EDTA, pH 7.5 in diethylpyrocarbonate (DEPC)-treated water. The lysate was centrifuged at 35,000 RPM in a Beckman SW41 rotor for 18 hours at 20°C. The RNA pellet was resuspended in 0.4 ml TE (10 mM Tris, 1 mM EDTA) pH 7.5, 0.1% SDS, and then extracted three times with 0.5 ml phenol/0.2 ml chloroform. The RNA was then precipitated on dry ice with 2.5 volumes ice-cold ethanol, 1/10 volume 3 M sodium acetate, pH 5.2 in DEPC-treated water, rinsed once with 70% ethanol in DEPC-treated water, and dried. The RNA pellet was resuspended in 2 microliters TE, pH 7.5 in DEPC-treated water.
Total cellular RNA was converted to cDNA using the Superscript kit (BRL, Bethesda, MD). Two microliters of RNA were added to one microliter oligo (dT)12-18 (500 micrograms/ml) and 9 microliters water. The sample was heated to 70°C for 10 minutes and ice quenched. Four microliters 5X buffer were added to the sample along with 2 microliters 0.1 M DTT and 1 microliter dNTP mix (10 mM each, dATP, dCTP, dGTP, dTTP). One microliter reverse transcriptase (200U) was added and the reaction was carried out for one hour at 42°C. The reaction was terminated by incubation of the sample at 90°C for five minutes and stored at -80°C.
Ten-fold serial dilutions of T cell cDNA in 10 mM TRIS, pH 7.5 were amplified using the standard kit and protocol recommended by Perkin Elmer-Cetus (Redwood City, CA). Each sample received 26.65 microliters water, 5 microliters 10X PCR buffer, 8 microliters of dNTP mix (1.25 mM each of dATP, dCTP, dGTP and dTTP), 0.1 microliter alpha ^32P-dCTP (3000 Ci/mmol), 0.25 microliter AmpliTaq, 5 microliters cDNA and 5 microliters cytokine-specific 5' and 3' primers (20 micromolar). The primers used for most cytokines and the beta-actin control were purchased from Clontech (Redwood City, CA). The human IL-4 primers were purchased from Research Genetics (Huntsville, AL) and had the following sequences: [formula]
The reactions were carried out after overlaying each sample with one drop of mineral oil, with the following program in a programmable thermal cycler (MJ Research, Cambridge, MA).
The PCR products were extracted once with 25 microliters chloroform and 25 microliters of each sample were then electrophoresed on an 8% polyacrylamide gel at 250 V. The gel was dried and exposed to pre-flashed x-ray film. Several exposures of each gel were then scanned using a Shimadzu flying spot laser densitometer. Values on the linear portion of the titrations were then compared to the medium control values to obtain a stimulation index for each sample. Primers for beta-actin were included as a control for general cDNA levels in each sample. Where the medium control values are not detectable, the lowest measurable response was set at 1.00. In other experiments, levels of cytokine cDNA can be compared directly with previously amplified cytokine-specific cDNAs as standards. Thus, absolute levels of particular cytokine cDNAs can be compared from one sample to another and from one experiment to another. In this experiment, IL-2, IL-4 and IFN-gamma levels were measured. […] This analysis will be expanded to studies of other cytokines involved in the generation of allergic responses, such as IL-5, IL-8, IL-9, TGF-beta. Samples of cDNA from each treatment can also be saved for later analysis once additional cytokines are identified and sequenced. […]

[4] = Chain #1 TRFP peptides, average cpm with antigen divided by cpm of T cells and antigen presenting cells alone, responding patients, SI ≥ 2.5 positive
[5] = Chain #1 TRFP peptides, cat allergic patients, average SI of all responding patients multiplied by percent of patients with a positive response
[6] = Chain #2 TRFP peptides, cat allergic patients, average SI of responding patients multiplied by percent positive
[7] = Chain #2 TRFP peptides, cat allergic patients, average of responding patients

Substance	T cell proliferation (cpm) following Antigenic challenge: Fel 8-3 ([1]; label = tolerance treatment over 5 days, challenge with Fel 8-3)	T cell proliferation (cpm) following Antigenic challenge: Ragweed Peptide ([1]; label = tolerance treatment over 5 days, challenge with Ragweed Peptide)	T cell proliferation (cpm) following Antigenic challenge: TRFP ([1]; label = tolerance treatment over 5 days, challenge with TRFP)	T cell proliferation (cpm) following Antigenic challenge: - ([1]; label = tolerance treatment over 5 days, no challenge antigen)	T cell proliferation (cpm) following Antigenic challenge ([1]; no tolerance treatment (-), label = challenge antigen)	SI [2, 4]	PI [2, 5]	T cell stimulatory activity ([2]; result in words)	STIMULATION INDEX IFN-γ [3]	STIMULATION INDEX IL-4 [3]	RATIO IFN/IL-4 [3]	PI [2, 6]	SI [2, 7]	STIMULATION INDEX IL-2 [3]	RATIO IL-2/IL-4 [3]	secondary T cell response of peripheral blood lymphocytes ([2]; patient 131, Figure 9, result in words)
Fel 8-3: TRFP chain 1 peptide, amino acids 7 - 33 (KRDVDLFLTGTPDEYVEQVAQYKALPV; UniProt P30438 29-55, looked up, fragment)	3,850 cpm	5,130 cpm	12,320 cpm	1,270 cpm	58,150 cpm	16.9	1437	powerful activity								
Fel 20-1: TRFP chain 2 peptide, amino acids 34 - 59 (ATEPERTAMKKIQDCYVENGLISRVL; UniProt P30440 51-76, looked up, fragment)									12.0	4.6	2.6	395	5.9			
Fel 28: TRFP chain 2 peptide, amino acids 60 - 82 (DGLVMTTISSSKDCMGEAVQNTV; UniProt P30440 77-99, looked up, fragment)								weakest T cell epitope containing region of TRFP	3.8	0.5	7.6	94	3.6			
Fel 8: TRFP chain 1 peptide, amino acids 1 - 30 (EICPAVKRDVDLFLTGTPDEYVEQVAQYKA; UniProt P30438 23-52, looked up, fragment)						18.1	1393	most dominant T-cell epitopes	1.8	0.3	6.0			1.0	3.3	respond
Fel 29: TRFP chain 2 peptide, amino acids 74 - 92 (MGEAVQNTVEDLKLNTLGR; UniProt P30440 91-109, looked up, fragment)									3.0	1.1	2.7	259	5.5	1.2	1.1	
Fel 17: TRFP chain 2 peptide, amino acids 12 - 33 (DVFFAVANGNELLLDLSLTKVN; UniProt P30440 29-50, looked up, fragment)									82.4	7.5	11.0	421	6.1	315.1	42.0	
Fel 25: TRFP chain 2 peptide, amino acids 49 - 68 (YVENGLISRVLDGLVMTTIS; UniProt P30440 66-85, looked up, fragment)									12.7	2.5	5.1	350	7.6	2.9	1.2	
Fel 14: TRFP chain 1 peptide, amino acids 18 - 43 (PDEYVEQVAQYKALPVVLENARILKN; UniProt P30438 40-65, looked up, fragment)						13.7	1054	powerful activity	75.0	1.9	39.5			106.9	56.3	
